Series [1] relates to patients after Austin bunionectomy surgery. As to conditions: for use of rescue medication (oxycodone), Mean (SD): n = 43. The protocol: Each transdermal delivery device was applied to the subject between 10 hours and 14 hours before each patient underwent Austin bunionectomy surgery with standard intraoperative anesthesia.
Pain was evaluated in patients at times from immediately after surgery through 72 hours after surgery using the Pain Intensity Numeric Rating Scale (NRS) and Summed Pain Intensity (NRSSPI). Pain was also evaluated based on the time and first use of rescue pain medication as well as total use of rescue medication.

Like-named read-outs stand apart in the source and are kept apart here.

Turning to `Cc1cccc([C@H](C)c2cnc[nH]2)c1C` [Dexmedetomidine], the entries for the “use of rescue medication (oxycodone), Mean (SD)” value in series [1] (0 to 24 Hours after Surgery), in series [1] (0 to 48 Hours after Surgery) and in series [1] (0 to 72 Hours after Surgery) were 23.5 (11.98), 37.5 (22.74) and 46.4 (30.80), respectively. In addition, the “proportion of patients requesting rescue medication” value in series [1] (first six hours after surgery, vs placebo) is given as “lower proportion”. Besides, the “pain intensity difference between dexmedetomidine and placebo” value in series [1] (over a 4-fold mean plasma dexmedetomidine concentration range) is given as “constant”. Further, in series [1] (through 72 hours after surgery, 2×3 cm^2 patch), the “pain rating (Numerical Rating Scale) compared to placebo” value is “lower pain rating”. Further, the “frequency of requests for rescue medication” value in series [1] (vs placebo) is “less frequently”. The solubility of dexmedetomidine result reads like this: (in Duro-Tak 87-2979) “less than 2%”; (in Duro-Tak 387/87-2353) 10-15%; (in hydroxyl functionalized acrylate polymer) “less than 1%”; (in levulinic acid) ~60%; (in oleic acid) ~40%.

Values taken from patent publication US12527770B2 (Teikoku Pharma USA, Inc., priority 2016, dated 2026).
